Measurements from patent publication US12558348B2, “Bioactive phytochemicals” (Phytoquest Limited, priority 2019, dated 2026).

System: phosphorylated p38
Assay: Western blot of phosphorylated p38 in LPS-stimulated THP-1 cells
Format: cell-based, human
Settings: vs LPS = 1.00
Experimental: THP-1 cells were cultured in RPMI media supplemented with mercaptoethanol & glutamine to get 80% confluence in culture flasks, then they were aspirated and centrifuged at 1500 rpm for 5 mins. The cell pellet was then resuspended in 1 ml of RPMI complete media and counted conventionally using a hemocytometer. The cells (5×106) were incubated with PMA (10 ng/ml) in separate dishes to differentiate THP-1 cells. To determine the protein expression p38 & p42/44, THP-1 cells were pre-treated for 1 hr with idoBR1-100 μg/ml & 50 μg/ml and cucumber extract (Q-actin batch no. B17CF001)—200 μg/ml & 100 μg/ml, followed by 2 hr LPS (1 μg/ml) stimulation. Post incubation, the cells were harvested and whole protein was isolated.
Cell pellets were lysed, and the protein concentration was determined using the Bio-Rad protein determination assay (Bio-Rad). Total cell proteins were subjected to 8% polyacrylamide SDS gel electrophoresis followed by transfer onto polyvinylidene difluoride membranes (Thermoscientific). The membranes were probed with either mouse anti-phospho-p38 mAb (Thermoscientific) or mouse anti-phospho-p42/44 mAb (Thermoscientific), followed by horseradish peroxidase-conjugated goat anti-mouse polyclonal antibodies (Thermoscientific). All immunoblots were visualized by ECL (Amersham Biosciences).

O=C(O)[C@@H]1NC[C@H](O)[C@@H](O)[C@@H]1O [idoBR1, (2R,3R,4R,5S)-3,4,5-trihydroxypiperidine-2-carboxylic acid]
Relative expression of p38 (50 μg/ml): 0.88 | Relative expression of p38 (100 μg/ml): 0.80
